# Measured values reported in patent publication US20240368150A1 (Hoffmann-La Roche Inc., priority 2021, published 2024).
# Like-named read-outs stand apart in the source and are kept apart here.
# Tests used:
# primary human T-cells [1] = test: Proliferation assay after 5 days (CellTiter-Glo, CD3 stimulation; PBS counter screen); type: cell-based; conditions: CD3 stimulation; for Emax: read-out: Emax proliferation (% activation); for EC50: primary human T-cells, CellTiter-Glo after 5 days, EC50 of fitted sigmoidal curve, read-out: Tcell Proliferation CD3 EC50
# Outline: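 Luminescent ATP detection (CellTiter-Glo 2.0) quantified cell number 5 days after compounds went onto medium-only plates. Wells showing visible toxicity or precipitate were noted beforehand, and compounds that stimulated unstimulated cells or lowered viability were flagged.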
# MV-3 cells = test: T-cell - TCB - MV3 killing assay (MCSP-TCB, RFP object count by Incucyte); type: cell-based, human; conditions: 5 d; for Emax: normalized: MCSP-TCB only = neutral control, 20 μM reference compound A1 = 100%, read-out: MSCP TCB killing MV-3 cells 5 d Emax; for EC50: primary human T-cells + MCSP-TCB, MV-3 RFP cells, read-out: MSCP TCB killing MV-3 cells 5 d EC50
# primary human T-cells [2] = test system: primary human T-cells
# [3] = Homo sapiens, T-cell, 120 h, 5 days, normalized to reference compound A1 as stimulator control = 100%, DMSO neutral control
Structure (SMILES),EC50 (primary human T-cells [2]) [nM],Emax (primary human T-cells [1]; [3]) [%],"EC50 (primary human T-cells [1]; Homo sapiens, T-cell, 120 h) [nM]","Emax (MV-3 cells; Homo sapiens, MV-3, 120 h) [%]",EC50 (MV-3 cells) [nM],"EC50 (MV-3 cells; Homo sapiens, MV-3, 120 h) [nM]","Emax proliferation (% activation) (primary human T-cells [1]; 5 days, normalized to reference compound A1 as stimulator control = 100%, DMSO neutral control)",EC50 (primary human T-cells [1]) [nM]
"CN(CC(F)(F)F)c1nnc(-c2ccc3c(c2)N(Cc2ccc(Cl)cc2)C(=O)[C@@H](N)CS3(=O)=O)o1 [Example 392, (3R)-3-amino-5-[(4-chlorophenyl)methyl]-7-[5-[methyl(2,2,2-trifluoroethyl)amino]-1,3,4-oxadiazol-2-yl]-1,1-dioxo-2,3-dihydro-1λ^6,5-benzothiazepin-4-one]",568,96,948,92,210,–,–,–
"N[C@H]1CS(=O)(=O)c2ccc(-c3nnc(NC4CCCC(F)(F)C4)o3)cc2N(Cc2ccc(Cl)cc2)C1=O (stereo partly drawn) [Example 401, (3R)-3-amino-5-[(4-chlorophenyl)methyl]-7-[5-[(3,3-difluorocyclohexyl)amino]-1,3,4-oxadiazol-2-yl]-1,1-dioxo-2,3-dihydro-1λ^6,5-benzothiazepin-4-one]",446,69,1130,92,1540,–,–,–
"CC(C)(C)c1nnc(-c2ccc3c(c2)N(Cc2ccc(C(C)(C)C#N)cc2)C(=O)[C@@H](N)CS3(=O)=O)o1 [Example 437, 2-[4-[[(3R)-3-amino-7-(5-tert-butyl-1,3,4-oxadiazol-2-yl)-1,1,4-trioxo-2,3-dihydro-1λ^6,5-benzothiazepin-5-yl]methyl]phenyl]-2-methyl-propanenitrile]",1400,112,698,88,–,340,–,–
"CN1CC(c2nnc(-c3cc4c(cc3F)S(=O)(=O)C[C@H](N)C(=O)N4Cc3ccc(Cl)cc3)o2)CC(F)(F)C1 (stereo partly drawn) [Example 451, (3R)-3-amino-5-[(4-chlorophenyl)methyl]-7-[5-(5,5-difluoro-1-methyl-3-piperidyl)-1,3,4-oxadiazol-2-yl]-8-fluoro-1,1-dioxo-2,3-dihydro-1λ^6,5-benzothiazepin-4-one]",153,–,–,88,160,–,200,82.1
"CC1(Nc2nnc(-c3cc4c(cc3F)S(=O)(=O)C[C@H](N)C(=O)N4Cc3ccc(Cl)cc3)o2)CC(F)(F)C1 [Example 461, (3R)-3-amino-5-[(4-chlorophenyl)methyl]-7-[5-[(3,3-difluoro-1-methyl-cyclobutyl)amino]-1,3,4-oxadiazol-2-yl]-8-fluoro-1,1-dioxo-2,3-dihydro-1λ^6,5-benzothiazepin-4-one]",455,106,395,91,310,–,–,–
"N[C@H]1CS(=O)(=O)c2cc(F)c(-c3nnc(NC4CC(F)(F)C4)o3)cc2N(Cc2ccc(Cl)cc2)C1=O [Example 462, (3R)-3-amino-5-[(4-chlorophenyl)methyl]-7-[5-[(3,3-difluorocyclobutyl)amino]-1,3,4-oxadiazol-2-yl]-8-fluoro-1,1-dioxo-2,3-dihydro-1λ^6,5-benzothiazepin-4-one]",986,121,562,100,350,–,–,–

# Continued, in another order:
EC50 (primary human T-cells [2]) [nM],Structure (SMILES),Emax (primary human T-cells [1]; [3]) [%],"EC50 (primary human T-cells [1]; Homo sapiens, T-cell, 120 h) [nM]","Emax (MV-3 cells; Homo sapiens, MV-3, 120 h) [%]",EC50 (MV-3 cells) [nM],"EC50 (MV-3 cells; Homo sapiens, MV-3, 120 h) [nM]","Emax proliferation (% activation) (primary human T-cells [1]; 5 days, normalized to reference compound A1 as stimulator control = 100%, DMSO neutral control)",EC50 (primary human T-cells [1]) [nM]
403,"CN1CC(c2nc(-c3cc4c(cc3F)S(=O)(=O)C[C@H](N)C(=O)N4Cc3ccc(Cl)cc3)no2)CC(F)(F)C1 (stereo partly drawn) [Example 323, (3R)-3-amino-5-[(4-chlorophenyl)methyl]-7-[5-(5,5-difluoro-1-methyl-3-piperidyl)-1,2,4-oxadiazol-3-yl]-8-fluoro-1,1-dioxo-2,3-dihydro-1λ^6,5-benzothiazepin-4-one]",109,229,100,90,–,–,–
284,"N[C@H]1CS(=O)(=O)c2ccc(-c3nnc(N4CCOC(F)(F)C4)o3)cc2N(Cc2ccc(Cl)cc2)C1=O [Example 391, (3R)-3-amino-5-[(4-chlorophenyl)methyl]-7-[5-(2,2-difluoromorpholin-4-yl)-1,3,4-oxadiazol-2-yl]-1,1-dioxo-2,3-dihydro-1λ^6,5-benzothiazepin-4-one]",157,207,100,–,70,–,–
649,"N[C@H]1CS(=O)(=O)c2ccc(-c3nnc(NC4CC(F)(F)C4)o3)cc2N(Cc2ccc(Cl)cc2)C1=O [Example 397, (3R)-3-amino-5-[(4-chlorophenyl)methyl]-7-[5-[(3,3-difluorocyclobutyl)amino]-1,3,4-oxadiazol-2-yl]-1,1-dioxo-2,3-dihydro-1λ^6,5-benzothiazepin-4-one]",82,2190,92,1850,–,–,–
97.7,"N[C@H]1CS(=O)(=O)c2cc(F)c(-c3nnc(N4CCOCC4)o3)cc2N(Cc2ccc(Cl)cc2)C1=O [Example 454, (3R)-3-amino-5-[(4-chlorophenyl)methyl]-8-fluoro-7-(5-morpholino-1,3,4-oxadiazol-2-yl)-1,1-dioxo-2,3-dihydro-1λ^6,5-benzothiazepin-4-one]",129,309,100,70,–,–,–
225,"N[C@H]1CS(=O)(=O)c2cc(F)c(-c3nnc(NC4CCCC4)o3)cc2N(Cc2ccc(Cl)cc2)C1=O [Example 455, (3R)-3-amino-5-[(4-chlorophenyl)methyl]-7-[5-(cyclopentylamino)-1,3,4-oxadiazol-2-yl]-8-fluoro-1,1-dioxo-2,3-dihydro-1λ^6,5-benzothiazepin-4-one]",115,339,91,370,–,–,–
607,"N[C@H]1CS(=O)(=O)c2cc(F)c(-c3nnc(NC4CCC(F)(F)C4)o3)cc2N(Cc2ccc(Cl)cc2)C1=O (stereo partly drawn) [Example 456, (3R)-3-amino-5-[(4-chlorophenyl)methyl]-7-[5-[(3,3-difluorocyclopentyl)amino]-1,3,4-oxadiazol-2-yl]-8-fluoro-1,1-dioxo-2,3-dihydro-1λ^6,5-benzothiazepin-4-one]",99,1260,94,770,–,–,–
543,"N[C@H]1CS(=O)(=O)c2cc(F)c(-c3nnc(NC4CCC(F)(F)CC4)o3)cc2N(Cc2ccc(Cl)cc2)C1=O [Example 458, (3R)-3-amino-5-[(4-chlorophenyl)methyl]-7-[5-[(4,4-difluorocyclohexyl)amino]-1,3,4-oxadiazol-2-yl]-8-fluoro-1,1-dioxo-2,3-dihydro-1λ^6,5-benzothiazepin-4-one]",116,491,95,590,–,–,–
577,"N[C@H]1CS(=O)(=O)c2cc(F)c(-c3nnc(NC4CCCC(F)(F)C4)o3)cc2N(Cc2ccc(Cl)cc2)C1=O (stereo partly drawn) [Example 463, (3R)-3-amino-5-[(4-chlorophenyl)methyl]-7-[5-[(3,3-difluorocyclohexyl)amino]-1,3,4-oxadiazol-2-yl]-8-fluoro-1,1-dioxo-2,3-dihydro-λ^6,5-benzothiazepin-4-one]",104,519,91,540,–,–,–
1130,"CC(C)Nc1nnc(-c2cc3c(cc2F)S(=O)(=O)C[C@H](N)C(=O)N3Cc2ccc(Cl)cc2)o1 [Example 464, (3R)-3-amino-5-[(4-chlorophenyl)methyl]-8-fluoro-7-[5-(isopropylamino)-1,3,4-oxadiazol-2-yl]-1,1-dioxo-2,3-dihydro-1λ^6,5-benzothiazepin-4-one]",111,1040,89,460,–,–,–
